Earlier results in patent US11352671B2, “Predicting therapeutic response in Parkinson's disease” (Vanderbilt University, priority 2015, dated 2022).

Details: in vivo

In the case of `N[C@@H](Cc1ccc(O)c(O)c1)C(=O)O` [levodopa], the “share that crosses the blood-brain barrier” value is given as 5-10%.
